# Assay results as given in patent publication US8754105B2, “Macrocyclic inhibitors of hepatitis C virus” (Medivir AB, priority 2005, dated 2014).
# Experiments:
# [1] = system: HCV type 1b replicon in Huh-7 luc/neo cells; assay: HCV replicon assay (Huh-Luc cells, luciferase readout); assay type: cell-based; settings: Hepatitis C virus, Huh-7, 72 h, three days incubation, luciferase activity
# From the text: The compounds of formula (I) were examined for activity in the inhibition of HCV RNA replication in a cellular assay. […] The cellular assay was based on a bicistronic expression construct, as described by Lohmann et al. (1999) Science vol. 285 pp. 110-113 with modifications described by Krieger et al. (2001) Journal of Virology 75: 4614-4624, in a multi-target screening strategy. In essence, the method was as follows.
# The assay utilized the stably transfected cell line Huh-7 luc/neo (hereafter referred to as Huh-Luc). This cell line harbors an RNA encoding a bicistronic expression construct comprising the wild type NS3-NS5B regions of HCV type 1b translated from an Internal Ribosome Entry Site (IRES) from encephalomyocarditis virus (EMCV), preceded by a reporter portion (FfL-luciferase), and a selectable marker portion (neo^R, neomycine phosphotransferase). The construct is bordered by 5′ and 3′ NTRs (non-translated regions) from HCV type 1b. Continued culture of the replicon cells in the presence of G418 (neo^R) is dependent on the replication of the HCV RNA. The stably transfected replicon cells that express HCV RNA, which replicates autonomously and to high levels, encoding inter alia luciferase, are used for screening the antiviral compounds.
# The replicon cells were plated in 384 well plates in the presence of the test and control compounds which were added in various concentrations. Following an incubation of three days, HCV replication was measured by assaying luciferase activity (using standard luciferase assay substrates and reagents and a Perkin Elmer ViewLux™ ultraHTS microplate imager). Replicon cells in the control cultures have high luciferase expression in the absence of any inhibitor. The inhibitory activity of the compound on luciferase activity was monitored on the Huh-Luc cells, enabling a dose-response curve for each test compound.
# [2] = target: full-length hepatitis C NS3 protease with NS4A cofactor (Hepatitis C virus genotype 1a (isolate H77) (HCV), UniProt P27958); assay: HCV NS3/4A protease inhibition (enzymatic) assay
# full-length hepatitis C NS3 protease with NS4A cofactor, sequence (P27958 1027-1657): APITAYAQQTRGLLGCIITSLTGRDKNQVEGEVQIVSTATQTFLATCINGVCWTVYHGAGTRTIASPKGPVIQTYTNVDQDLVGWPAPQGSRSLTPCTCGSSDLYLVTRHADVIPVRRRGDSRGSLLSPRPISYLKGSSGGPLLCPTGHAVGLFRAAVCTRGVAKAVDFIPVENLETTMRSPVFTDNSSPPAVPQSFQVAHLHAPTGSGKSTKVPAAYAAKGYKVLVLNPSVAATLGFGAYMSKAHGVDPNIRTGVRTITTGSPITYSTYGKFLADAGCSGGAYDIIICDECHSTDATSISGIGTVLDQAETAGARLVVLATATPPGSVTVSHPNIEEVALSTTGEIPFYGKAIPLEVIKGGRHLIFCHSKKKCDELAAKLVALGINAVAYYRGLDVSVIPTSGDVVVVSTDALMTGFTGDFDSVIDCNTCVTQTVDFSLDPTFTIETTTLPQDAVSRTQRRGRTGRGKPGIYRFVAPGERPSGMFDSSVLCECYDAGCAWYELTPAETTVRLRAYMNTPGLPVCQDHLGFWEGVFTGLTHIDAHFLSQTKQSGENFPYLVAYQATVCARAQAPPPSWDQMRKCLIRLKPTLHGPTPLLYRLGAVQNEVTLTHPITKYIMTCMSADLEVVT
# Procedure: The aim of this in vitro assay was to measure the inhibition of HCV NS3/4A protease complexes by the compounds of the present invention.
# The inhibition of full-length hepatitis C NS3 protease enzyme was measured essentially as described in Poliakov, 2002 Prot Expression & Purification 25 363 371. Briefly, the hydrolysis of a depsipeptide substrate, Ac-DED(Edans)EEAbuψ[COO]ASK(Dabcyl)-NH2 (AnaSpec, San José, USA), was measured spectrofluorometrically in the presence of a peptide cofactor, [sequence] […] The enzyme (1 nM) was incubated in 50 mM HEPES, pH 7.5, 10 mM DTT, 40% glycerol, 0.1% n-octyl-D-glucoside, with 25 μM NS4A cofactor and inhibitor at 30° C. for 10 min, whereupon the reaction was initiated by addition of 0.5 μM substrate. Inhibitors were dissolved in DMSO, sonicated for 30 sec. and vortexed. The solutions were stored at −20° C. between measurements.
# The final concentration of DMSO in the assay sample was adjusted to 3.3%. The rate of hydrolysis was corrected for inner filter effects according to published procedures. […] A minimum of two replicates was performed for all measurements.
structure (smiles),measurement,setting,value
"COc1ccc2c(O[C@@H]3C[C@H]4C(=O)N[C@]5(C(=O)O)C[C@H]5/C=C\CCCCOC(=O)N4C3)nc(Cl)cc2c1 [Compound 16, 17-(3-chloro-6-methoxyisoquinolin-1-yloxy)-2,14-dioxo-3,15-diaza-13-oxatricyclo[13.3.0.0^4,6]octadec-7-ene-4-carboxylic acid]",EC50,[1],> 10000 nM
same,Ki,[2],1000 nM
"COc1ccc2c(O[C@@H]3C[C@H]4C(=O)N[C@]5(C(=O)NS(=O)(=O)C6CC6)C[C@H]5/C=C\CCCCOC(=O)N4C3)nc(Cl)cc2c1 [Compound 17, N-[17-(3-chloro-6-methoxyisoquinolin-1-yloxy)-2,14-dioxo-3,15-diaza-13-oxatricyclo[13.3.0.0^4,6]octadec-7-ene-4-carbonyl](cyclopropyl) sulfonamide]",EC50,[1],> 10000 nM
same,Ki,[2],43 nM
"COc1ccc2c(O[C@@H]3C[C@H]4C(=O)N[C@]5(C(=O)O)C[C@H]5/C=C\CCCCOC(=O)N4C3)cc(-c3ccccc3)nc2c1 [Compound 22, 17-(7-methoxy-2-phenylquinolin-4-yloxy)-2,14-dioxo-3,15-diaza-13-oxatricyclo[13.3.0.0^4,6]octadec-7-ene-4-carboxylic acid]",EC50,[1],> 10000 nM
same,Ki,[2],1070 nM
"COc1ccc2c(O[C@@H]3C[C@H]4C(=O)N[C@]5(C(=O)NS(=O)(=O)C6CC6)C[C@H]5/C=C\CCCCOC(=O)N4C3)cc(-c3ccccc3)nc2c1 [Compound 23, N-[17-(7-methoxy-2-phenylquinolin-4-yloxy)-2,14-dioxo-3,15-diaza-13-oxatricyclo[13.3.0.0^4,6]octadec-7-ene-4-carbonyl](cyclopropyl)-sulfonamide]",EC50,[1],1080 nM
same,Ki,[2],0.2 nM
"COc1ccc2c(O[C@@H]3C[C@H]4C(=O)N[C@]5(C(=O)O)C[C@H]5/C=C\CCCCCOC(=O)N4C3)cc(-c3ccccc3)nc2c1 [Compound 24, 18-(7-methoxy-2-phenylquinolin-4-yloxy)-2,15-dioxo-3,16-diaza-14-oxatricyclo[14.3.0.0^4,6]nonadec-7-ene-4-carboxylic acid]",EC50,[1],> 10000 nM
same,Ki,[2],40 nM
"COc1ccc2c(O[C@@H]3C[C@H]4C(=O)N[C@]5(C(=O)NS(=O)(=O)C6CC6)C[C@H]5/C=C\CCCCCOC(=O)N4C3)cc(-c3ccccc3)nc2c1 [Compound 25, N-[18-(7-methoxy-2-phenylquinolin-4-yloxy)-2,15-dioxo-3,16-diaza-14-oxatricyclo[14.3.0.0^4,6]nonadec-7-ene-4-carbonyl](cyclopropyl)-sulfonamide]",EC50,[1],481 nM
same,Ki,[2],2.4 nM
